Read-outs that look alike come from different tables or passages of the source.
Legend:
LPS-induced serum IL-6 = test: In vivo mouse model to demonstrate modulation of pro-inflammatory response (i.v. LPS); design: species or system Male CD1 mice; conditions: for reduced maximum (Cmax) IL-6 levels / reduced total exposures (AUC) of IL-6: 1 h before i.v. LPS 100 μg/kg, mouse
Procedure: Male CD1 mice (25-30 g, n=4 per group) received a single i.v. bolus injection of LPS (100 μg/kg) via the tail vein 1 h after pre-treatment with a single oral administration of either vehicle (1% (w/v) methylcellulose in sterile water) or the test compound (3, 10 and 30 mg/kg). Serial blood samples were obtained from the tail vein by direct venepuncture at various time points up to 5 h post-LPS administration for analysis of IL-6 and the test compound concentrations by Meso Scale Discovery (MSD) analysis and LC-MS/MS respectively.

[1] = system: LPS induced IL-6 secretion from whole blood; test: LPS induced IL-6 secretion from whole blood; format: cell-based; conditions: LPS 200 ng/ml, 24 hours, IL-6 immunoassay
Procedure: Measurement of LPS Induced IL-6 Secretion from Whole Blood
Activation of monocytic cells by agonists of toll-like receptors such as bacterial lipopolysaccharide (LPS) results in production of key inflammatory mediators including IL-6. Such pathways are widely considered to be central to the pathophysiology of a range of auto-immune and inflammatory disorders.
Compounds to be tested are diluted to give a range of appropriate concentrations of which 1 μl of the diluted stocks is added to a 96 well plate. Following addition of whole blood (130 ul) the plates are incubated at 37 degrees (5% CO2) for 30 min before the addition of 10 μl of 2.8 ug/ml LPS, diluted in complete RPMI 1640 (final concentration=200 ng/ml), to give a total volume of 140 μl per well. After further incubation for 24 hours at 37 degrees, 140 μl of PBS are added to each well. The plates are sealed, shaken for 10 minutes and then centrifuged (2500 rpm×10 min). 100 μl of the supernatant are removed and IL-6 levels assayed by immunoassay (typically by MesoScale Discovery technology) either immediately or following storage at −20 degrees. Concentration response curves for each compound was generated from the data and an IC50 value was calculated

[2] = system: Multiple myeloma cell lines; test: Oncology cell growth assay (384-well, CellTiter-Glo); format: cell-based, Human
Procedure: (§1) Oncology Cell Growth Assay
(§2) Human cell lines (n=80 comprising cell lines described in Table 2 below) were cultured in RPMI-1640 containing 10% fetal bovine serum, 1000 viable cells per well were plated in 384-well black flat bottom polystyrene plates (Greiner #781086) in 48 μl of culture media. All plates were placed at 5% CO2, 37° C. overnight. The following day one plate was harvested with CellTiter-Glo (CTG, Promega #G7573) for a time equal to 0 (T0) measurement and compound (20 point titration from 14.7 uM to 7 pM) was added to the remaining plates. The final concentration of DMSO in all wells was 0.15%. Cells were incubated for 72 hours or the indicated time and each plate was developed with CellTiter-Glo reagent using a volume equivalent to the cell culture volume in the wells. Plates were shaken for approximately 2 minutes and chemiluminescent signal was read on the Analyst GT (Molecular Devices) or EnVision Plate Reader (Perkin Elmer).
(§3) Results are expressed as a percent of the T0 and plotted against the compound concentration. The T0 value was normalized to 100% and represents the number of cells at time of compound addition and the concentration response data were fit with a 4 parameter curve fit using XLfit software (model 205). The concentration that inhibited cell growth by 50% (gIC50) is the midpoint of the ‘growth window’ (between the T0 and DMSO control). The Ymin−T0 value is determined by subtracting the T0 value (100%) from the Ymin value (%) determined from the fit of the concentration response curve. Values from the wells with no cells were subtracted from all samples for background correction.

[3] = system: Cervical cancer cell lines; test: as above; format: cell-based; conditions: Homo sapiens; range over 4 cervical cancer cell lines; read-out: gIC50
Procedure: as §1, §2, §3

Esophageal cell lines = test: as above; format: cell-based; conditions: Homo sapiens
Procedure: as §1, §2, §3

[4] = system: NUT-midline carcinoma cell lines; test: as above; format: cell-based; conditions: Homo sapiens; range over 2 NUT-midline carcinoma cell lines; read-out: gIC50
Procedure: as §1, §2, §3

Neuroblastoma cell lines = test: as above; format: cell-based; conditions: Homo sapiens
Procedure: as §1, §2, §3

[5] = system: Small cell lung cancer (SCLC) cell lines; test: as above; format: cell-based; conditions: Homo sapiens
Procedure: as §1, §2, §3

[6] = system: Acute monocytic leukemia cell line; test: Oncology cell growth assay (analogous procedure, 96 well plates); format: cell-based; conditions: Homo sapiens, 1 acute monocytic leukemia line, read-out: gIC50
Procedure: as §2, §3
(§4) The compound of Example 2 was also tested in accordance with an analogous procedure using 96 well plates along with appropriate modifications to volumes and concentrations that would be apparent to those skilled in the art.

[7] = system: Acute promyelocytic leukemia cell line; test: as above; format: cell-based; conditions: Homo sapiens, 1 acute promyelocytic leukemia line, read-out: gIC50
Procedure: as §2, §3, §4

[8] = system: Breast cancer (ductal) cell line; test: as above; format: cell-based; conditions: Homo sapiens, 1 breast cancer (ductal) line, read-out: gIC50
Procedure: as §2, §3, §4

[9] = system: Burkitt's lymphoma cell lines; test: as above; format: cell-based; conditions: Homo sapiens, Burkitts lymphoma cell, range over 3 Burkitt's lymphoma lines, read-out: gIC50
Procedure: as §2, §3, §4

[10] = system: Chronic myeloid leukemia cell line; test: as above; format: cell-based; conditions: Homo sapiens, 1 chronic myeloid leukemia line, read-out: gIC50
Procedure: as §2, §3, §4

[11] = system: Cutaneous T cell lymphoma cell line; test: as above; format: cell-based; conditions: Homo sapiens, 1 cutaneous T cell lymphoma line, read-out: gIC50
Procedure: as §2, §3, §4

[12] = system: Ovarian carcinoma cell line; test: as above; format: cell-based; conditions: Homo sapiens, 1 ovarian carcinoma line, read-out: gIC50
Procedure: as §2, §3, §4

[13] = positive control, maximal reduction observed, mouse LPS model

For `C[C@@H]1C[C@H]2[C@@H]3CCC4=CC(=O)C=C[C@]4(C)[C@@]3(F)[C@@H](O)C[C@]2(C)[C@@]1(O)C(=O)CO` [dexamethasone, reference compound], the “reduction in IL-6 AUC” value (LPS-induced serum IL-6; [13]) was 70% and the “reduction in IL-6 Cmax” value (LPS-induced serum IL-6; [13]) was 73%.
`COC[C@@H](C)n1c(C2CCOCC2)nc2cnc3cc(-c4c(C)noc4C)c(OC)cc3c21` [Example 2, 4-(8-methoxy-1-((R)-1-methoxypropan-2-yl)-2-(tetrahydro-2H-pyran-4-yl)-1H-imidazo[4,5-c]quinolin-7-yl)-3,5-dimethylisoxazole] was tested, and the IC50 [1] was 100 to 1000 nM, the “reduced maximum (Cmax) IL-6 levels” value (LPS-induced serum IL-6; 3 mg/kg single oral) was 46% and the “reduced total exposures (AUC) of IL-6” value (LPS-induced serum IL-6; 3 mg/kg single oral) was 35%. The “reduced maximum (Cmax) IL-6 levels” value (LPS-induced serum IL-6; 10 mg/kg single oral) was 79%, the “reduced total exposures (AUC) of IL-6” value (LPS-induced serum IL-6; 10 mg/kg single oral) was 70% and the “reduced maximum (Cmax) IL-6 levels” value (LPS-induced serum IL-6; 30 mg/kg single oral) was 73%. The “reduced total exposures (AUC) of IL-6” value (LPS-induced serum IL-6; 30 mg/kg single oral) was 63%, the IC50 ([2]; Homo sapiens, median of 16 multiple myeloma cell lines, read-out: gIC50 (median)) was 414 nM and the IC50 ([2]; Homo sapiens, range over 16 multiple myeloma cell lines, 72 hours, read-out: gIC50) was ≥ 1.1 nM. For the same molecule, the IC50 ([2]; range for 15 out of 16 multiple myeloma cell lines, read-out: gIC50) was 1.1 to 2000 nM, the IC50 [3] was 266 to 847 nM and the IC50 (Esophageal cell lines; median of 8 esophageal cell lines, read-out: gIC50 (median)) was 759 nM. The IC50 (Esophageal cell lines; range over 8 esophageal cell lines, read-out: gIC50) was 208 to 1540 nM, the IC50 [4] was 59 to 66 nM and the IC50 (Neuroblastoma cell lines; median of 12 neuroblastoma cell lines, read-out: gIC50 (median)) was 193 nM. The IC50 (Neuroblastoma cell lines; range over 12 neuroblastoma cell lines, read-out: gIC50) was 25 to 435 nM, the IC50 ([5]; median of 38 SCLC cell lines, read-out: gIC50 (median)) was 538 nM and the IC50 ([5]; range for 35 of the 38 SCLC cell lines, read-out: gIC50) was 76 to 2500 nM. For the same molecule, the IC50 ([5]; range over 38 SCLC cell lines, 72 hours, read-out: gIC50) was ≥ 76 nM, the IC50 [6] was 123 nM and the IC50 [7] was 141 nM. It also gave an IC50 [8] of 537 nM, an IC50 [9] of 181 to 807 nM and an IC50 [10] of 776 nM. For the same molecule, the IC50 [11] was 162 nM and the IC50 [12] was 707 nM.
With `COCC(C)n1c(C2CCOCC2)nc2cnc3cc(-c4c(C)noc4C)c(OC)cc3c21` (centres unmarked) [Example 1, 4-(8-methoxy-1-(1-methoxypropan-2-yl)-2-(tetrahydro-2H-pyran-4-yl)-1H-imidazo[4,5-c]quinolin-7-yl)-3,5-dimethylisoxazole] the IC50 [1] was 100 to 1000 nM.
